Assay results: ChEMBL document CHEMBL5390315, “Targeted Protein Degradation of Histone Deacetylases by Hydrophobically Tagged Inhibitors” (ACS Med Chem Lett, 2023)
The source made the active and inactive calls. The rule behind the calls is not given here.

Assays:
[1] = test system: MM1.S; assay: Antiproliferative activity against human MM.1S cells assessed as inhibition of cell growth at upto 100 uM incubated for 72 hrs by microplate photometer analysis; type: functional, cell-based
[2] = test system: MM1.S; assay: cells; type: functional, cell-based; settings: Homo sapiens, 72 h
Description: Antiproliferative activity against human MM.1S cells assessed as inhibition of cell growth incubated for 72 hrs by microplate photometer analysis

[3] = target: Histone deacetylase 4 (Homo sapiens) (UniProt P56524); assay: Induction of HDAC4 degradation in human MM1.S cells at 20 uM incubated for 24 hrs by immunoblot analysis; type: cell-based
[4] = target: T1, Protein deacetylase HDAC6 (Homo sapiens) (UniProt Q9UBN7); assay: Induction of HDAC6 degradation in human MM1.S cells at 20 uM incubated for 24 hrs by immunoblot analysis; type: cell-based
T1 sequence (whole entry): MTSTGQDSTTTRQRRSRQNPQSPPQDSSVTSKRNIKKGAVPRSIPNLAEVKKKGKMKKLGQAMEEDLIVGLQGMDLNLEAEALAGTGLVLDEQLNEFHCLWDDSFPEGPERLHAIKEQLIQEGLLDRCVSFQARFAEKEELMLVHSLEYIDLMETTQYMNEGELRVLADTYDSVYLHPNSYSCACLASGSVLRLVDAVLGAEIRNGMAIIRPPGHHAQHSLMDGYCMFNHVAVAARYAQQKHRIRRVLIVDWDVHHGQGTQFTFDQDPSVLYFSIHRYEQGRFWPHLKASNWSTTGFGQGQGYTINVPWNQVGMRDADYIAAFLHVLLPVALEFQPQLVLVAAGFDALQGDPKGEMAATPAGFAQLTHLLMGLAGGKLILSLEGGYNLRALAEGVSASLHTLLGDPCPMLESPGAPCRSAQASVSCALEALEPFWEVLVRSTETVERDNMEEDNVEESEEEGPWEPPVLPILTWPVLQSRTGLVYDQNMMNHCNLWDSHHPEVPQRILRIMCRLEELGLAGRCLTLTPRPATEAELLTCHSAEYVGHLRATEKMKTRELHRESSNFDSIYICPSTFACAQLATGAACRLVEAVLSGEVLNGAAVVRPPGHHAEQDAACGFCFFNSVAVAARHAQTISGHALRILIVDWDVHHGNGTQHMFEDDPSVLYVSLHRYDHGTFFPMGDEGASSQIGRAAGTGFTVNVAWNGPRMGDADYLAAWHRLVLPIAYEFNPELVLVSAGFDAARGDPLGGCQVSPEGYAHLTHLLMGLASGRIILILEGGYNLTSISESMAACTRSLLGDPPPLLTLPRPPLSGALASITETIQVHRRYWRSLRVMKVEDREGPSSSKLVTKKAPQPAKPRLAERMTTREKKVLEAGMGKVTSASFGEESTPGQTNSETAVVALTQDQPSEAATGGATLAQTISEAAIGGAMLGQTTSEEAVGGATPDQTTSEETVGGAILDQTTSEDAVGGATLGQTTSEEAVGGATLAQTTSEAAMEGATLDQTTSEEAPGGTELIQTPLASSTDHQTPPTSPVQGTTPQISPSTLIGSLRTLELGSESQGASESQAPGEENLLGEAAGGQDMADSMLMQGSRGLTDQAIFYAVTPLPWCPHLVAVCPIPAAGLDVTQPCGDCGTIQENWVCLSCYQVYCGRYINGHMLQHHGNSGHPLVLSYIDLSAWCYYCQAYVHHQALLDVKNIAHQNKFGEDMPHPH

[5] = target: T2, Histone deacetylase 1 (Homo sapiens, UniProt Q13547); assay: Induction of HDAC1 degradation in human MM1.S cells incubated for 24 hrs by immunoblot analysis; type: cell-based
[6] = test system: MM1.S; assay: Induction of apoptosis in human MM1.S cells assessed as late apoptosis at 20 uM incubated for 48 hrs by Annexin V-FITC/PI staining based flow cytometry; type: functional, cell-based
[7] = target: T2, Histone deacetylase 1; assay: Inhibition of C-terminal 6His tagged human recombinant full length HDAC1 (1 to 482 residues) using Z- Lys(Ac)-AMC as fluorogenic substrate incubated for 90 mins followed by trypsin addition and measured after 30 min by microplate reader analysis
[8] = target: Histone deacetylase; assay: Inhibition of human recombinant HDAC in human MM.1S cells using Boc-Lys(Epsilon-Ac)-AMC as substrate preincubated for 18 hrs followed by substrate addition and measured after 3 hrs by microplate reader analysis; type: cell-based; settings: mm1.s
[9] = test system: MM1.S; assay: Induction of apoptosis in human MM1.S cells assessed as early apoptosis at 20 uM incubated for 48 hrs by Annexin V-FITC/PI staining based flow cytometry; type: functional, cell-based
[10] = target: T2, Histone deacetylase 1; assay: Induction of HDAC1 degradation in human MM1.S cells at 20 uM incubated for 24 hrs by immunoblot analysis; type: cell-based
[11] = target: T3, Histone deacetylase 2 (Homo sapiens, UniProt Q92769)
Description: Inhibition of C-terminal flag tagged human recombinant full length HDAC2 (1 to 488 residues) using Z- Lys(Ac)-AMC as fluorogenic substrate incubated for 90 mins followed by trypsin addition and measured after 30 min by microplate reader analysis

[12] = target: Histone deacetylase 4 (Homo sapiens) (UniProt P56524); assay: Inhibition of N-terminal GST/C-terminal His-tagged human recombinant HDAC4 (627 to 1084 residues) expressed in baculovirus expression system using Boc-Lys(Tfa)-AMC as fluorogenic substrate at 10 uM incubated for 90 min followed by trypsin addition and measured after 30 min by microplate reader analysis; settings: time 120.0 min
[13] = target: T4, Protein deacetylase HDAC6 (Homo sapiens, UniProt Q9UBN7); assay: Inhibition of C-terminal GST tagged human recombinant full length HDAC6 (1 to 1215 residues) using Z- Lys(Ac)-AMC as fluorogenic substrate incubated for 90 mins followed by trypsin addition and measured after 30 min by microplate reader analysis
T4 sequence (Q9UBN7 whole entry): T1 sequence (whole entry)

[14] = target: T3, Histone deacetylase 2; assay: Induction of HDAC2 degradation in human MM1.S cells at 20 uM incubated for 24 hrs by immunoblot analysis; type: cell-based
[15] = target: T2, Histone deacetylase 1; assay: Induction of HDAC1 degradation in human MM1.S cells at 20 uM incubated for 24 hrs in the presence of MG132 by immunoblot analysis; type: cell-based

T3 sequence (Q92769 whole entry, the tested form may be a part): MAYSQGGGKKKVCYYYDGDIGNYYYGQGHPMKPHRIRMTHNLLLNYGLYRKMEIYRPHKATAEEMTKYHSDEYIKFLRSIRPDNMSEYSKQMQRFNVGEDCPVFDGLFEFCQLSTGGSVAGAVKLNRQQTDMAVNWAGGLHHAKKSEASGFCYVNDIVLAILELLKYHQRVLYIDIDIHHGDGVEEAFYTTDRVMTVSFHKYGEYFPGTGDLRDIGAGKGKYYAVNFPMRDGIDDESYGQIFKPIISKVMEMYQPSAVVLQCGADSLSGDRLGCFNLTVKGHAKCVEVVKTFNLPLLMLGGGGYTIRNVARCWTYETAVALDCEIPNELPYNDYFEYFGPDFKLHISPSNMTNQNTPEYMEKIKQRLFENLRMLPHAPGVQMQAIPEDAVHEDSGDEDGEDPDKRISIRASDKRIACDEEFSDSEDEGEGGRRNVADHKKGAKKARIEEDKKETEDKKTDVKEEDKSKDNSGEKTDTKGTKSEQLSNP
Chain of Histone deacetylase 4 (Homo sapiens) (P56524 whole entry, the tested form may be a part): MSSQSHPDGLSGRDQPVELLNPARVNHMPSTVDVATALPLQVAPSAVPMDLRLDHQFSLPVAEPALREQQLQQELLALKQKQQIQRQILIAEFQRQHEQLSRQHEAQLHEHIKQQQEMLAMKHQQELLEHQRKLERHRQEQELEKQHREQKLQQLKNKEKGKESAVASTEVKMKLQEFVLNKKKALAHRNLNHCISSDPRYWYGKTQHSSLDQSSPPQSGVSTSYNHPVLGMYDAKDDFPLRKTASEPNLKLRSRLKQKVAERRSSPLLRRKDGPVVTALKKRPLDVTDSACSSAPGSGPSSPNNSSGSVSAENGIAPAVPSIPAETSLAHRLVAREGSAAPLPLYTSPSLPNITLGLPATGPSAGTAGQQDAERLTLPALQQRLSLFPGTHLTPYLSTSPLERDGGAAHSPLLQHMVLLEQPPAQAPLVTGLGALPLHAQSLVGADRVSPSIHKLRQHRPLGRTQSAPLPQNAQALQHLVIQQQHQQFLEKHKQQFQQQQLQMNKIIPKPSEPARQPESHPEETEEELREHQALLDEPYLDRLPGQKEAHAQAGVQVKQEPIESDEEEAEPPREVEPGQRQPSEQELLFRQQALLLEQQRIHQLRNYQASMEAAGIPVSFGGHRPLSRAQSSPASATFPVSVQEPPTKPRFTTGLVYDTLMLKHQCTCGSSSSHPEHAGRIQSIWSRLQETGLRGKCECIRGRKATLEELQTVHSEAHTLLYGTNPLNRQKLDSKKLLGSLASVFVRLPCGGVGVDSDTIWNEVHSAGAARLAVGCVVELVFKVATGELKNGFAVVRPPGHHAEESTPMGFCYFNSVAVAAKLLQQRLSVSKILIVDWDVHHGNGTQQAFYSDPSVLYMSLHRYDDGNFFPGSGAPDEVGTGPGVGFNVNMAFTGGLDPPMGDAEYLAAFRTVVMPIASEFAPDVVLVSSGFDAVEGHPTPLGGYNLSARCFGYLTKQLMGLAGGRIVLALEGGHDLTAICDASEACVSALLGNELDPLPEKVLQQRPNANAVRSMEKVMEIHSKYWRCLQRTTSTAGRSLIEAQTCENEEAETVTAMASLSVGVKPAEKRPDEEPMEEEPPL
T2 sequence (Q13547 whole entry): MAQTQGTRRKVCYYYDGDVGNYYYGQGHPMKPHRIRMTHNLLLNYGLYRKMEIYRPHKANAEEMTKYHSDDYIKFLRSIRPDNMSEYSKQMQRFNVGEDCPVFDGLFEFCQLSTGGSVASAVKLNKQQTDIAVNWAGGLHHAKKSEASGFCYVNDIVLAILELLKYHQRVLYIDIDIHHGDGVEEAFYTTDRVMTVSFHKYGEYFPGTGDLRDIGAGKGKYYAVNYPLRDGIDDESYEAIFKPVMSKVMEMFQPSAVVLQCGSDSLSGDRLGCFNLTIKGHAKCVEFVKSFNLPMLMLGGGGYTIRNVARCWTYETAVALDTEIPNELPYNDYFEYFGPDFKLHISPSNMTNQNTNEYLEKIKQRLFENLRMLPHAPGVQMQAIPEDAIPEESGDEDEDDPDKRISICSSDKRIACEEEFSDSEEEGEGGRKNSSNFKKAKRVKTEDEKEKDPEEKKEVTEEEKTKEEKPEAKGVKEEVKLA

IC50 [2] [nM] | Activity [3] | Activity [4] | Emax [5] [%] | IC50 [7] [nM] | IC50 [8] [nM] | Activity [10] | IC50 [11] [nM] | inhibition [12] | IC50 [13] [nM] | SMILES | Activity [1] | Activity [6] | Activity [9] | further results
 |  |  |  |  |  |  |  |  |  | O=C(CCCCCCNC(=O)c1ccc(NC(=O)CC2c3ccccc3-c3ccccc32)cc1)NO | inactive |  |  | 
48800 |  |  |  |  |  |  |  |  |  | O=C(CCCCCCNC(=O)c1ccc(OCc2cn(CCCCCCOCCOCCNC(=O)CC34C[C@H]5C[C@@H](C3)C[C@@H](C4)C5)nn2)cc1)NO |  |  |  | 
11600 | inactive | inactive | 47 | 86.4 | 540 | Active | 157 | inactive | 3.3 | O=C(CCCCCCNC(=O)c1ccc(NC(=O)CNC(=O)CC2c3ccccc3-c3ccccc32)cc1)NO |  | Active | Active | 
3970 | inactive | inactive | 47 | 192 | 1120 | Active | 295 | inactive | 5.2 | O=C(CCCCCCNC(=O)c1ccc(NC(=O)CC23C[C@H]4C[C@@H](C2)C[C@@H](C3)C4)cc1)NO |  | Active | Active | Activity [14]: Active
 |  |  |  |  |  |  |  |  |  | O=C(CC12C[C@H]3C[C@@H](C1)C[C@@H](C2)C3)NCCOCCOCCCCCCn1cc(COc2ccc(C(=O)NCc3ccc(C(=O)NO)cc3)cc2)nn1 | inactive |  |  | 
22800 |  |  |  |  |  |  |  |  |  | O=C(CCCCCCNC(=O)c1ccc(NC(=O)CCCCCNC(=O)CC23C[C@H]4C[C@@H](C2)C[C@@H](C3)C4)cc1)NO |  |  |  | 
23800 |  |  |  |  |  |  |  |  |  | O=C(CCCCCCNC(=O)c1ccc(NC(=O)CCCNC(=O)CC23C[C@H]4C[C@@H](C2)C[C@@H](C3)C4)cc1)NO |  |  |  | 
68100 |  |  |  |  |  |  |  |  |  | O=C(CCCCCCNC(=O)c1ccc(NC(=O)CCCNC(=O)CC2c3ccccc3-c3ccccc32)cc1)NO |  |  |  | 
7230 | inactive | inactive | 47 | 133 | 580 | Active | 246 | inactive | 5.9 | O=C(CCCCCCNC(=O)c1ccc(NC(=O)CNC(=O)CC23C[C@H]4C[C@@H](C2)C[C@@H](C3)C4)cc1)NO |  | Active | Active | Activity [14]: Active
 |  |  |  |  |  |  |  |  |  | O=C(CC12C[C@H]3C[C@@H](C1)C[C@@H](C2)C3)NCCOCCOCCCCCCn1cc(-c2ccc(C(=O)NCc3ccc(C(=O)NO)cc3)cc2)nn1 | inactive |  |  | 
 |  |  |  |  |  |  |  |  |  | O=C(CCCCCCNC(=O)c1ccc(NC(=O)CCCCCNC(=O)CC2c3ccccc3-c3ccccc32)cc1)NO | inactive |  |  | 
10300 | inactive | inactive | 47 | 350 | 1170 | Active | 434 | inactive | 17.7 | O=C(CCCCCCNC(=O)c1ccc(-c2cn(CCCCCCOCCOCCNC(=O)CC34C[C@H]5C[C@@H](C3)C[C@@H](C4)C5)nn2)cc1)NO |  | Active | Active | Activity [15]: inactive
